Literature values in patent publication US20250169496A1, “USE OF 2-AMINO-3-HYDROXY-3-METHYLBUTYRIC ACID AND/OR 2-AMINO-3-(4-HYDROXYPHENYL) BUTYRIC ACID” (NANJING TIANNONG BIOTECHNOLOGY CO., LTD., priority 2021, published 2025).

Tested on: Lactobacihs arabinosu
Settings: cited from earlier work

For CC(C)(O)[C@H](N)C(=O)O [L-2-amino-3-hydroxy-3-methylbutyric acid], the “Inhibition of the synthesis of valine” value is listed as “could inhibit the synthesis of valine”.
